Results: paper PMC11471619, “A palmitoyl transferase chemical–genetic system to map ZDHHC-specific S-acylation” (Nature Biotechnology, 2024)

How the values were obtained:
Assay in all cases: probe loading in HEK293T, FLAG IP, TAMRA click, in-gel fluorescence
Format in all cases: cell-based
Details in all cases: 15 µM, fed as free acid and activated to the CoA ester in cells; covalent thioester
[1] = biological target: T1, ZDHHC11 (Homo sapiens, UniProt Q9H8X9, M181A)
T1 construct: N-terminal 3xFLAG tag; expressed in HEK293T, anti-FLAG immunoprecipitated
T1 sequence (Q9H8X9 1-412 M181A): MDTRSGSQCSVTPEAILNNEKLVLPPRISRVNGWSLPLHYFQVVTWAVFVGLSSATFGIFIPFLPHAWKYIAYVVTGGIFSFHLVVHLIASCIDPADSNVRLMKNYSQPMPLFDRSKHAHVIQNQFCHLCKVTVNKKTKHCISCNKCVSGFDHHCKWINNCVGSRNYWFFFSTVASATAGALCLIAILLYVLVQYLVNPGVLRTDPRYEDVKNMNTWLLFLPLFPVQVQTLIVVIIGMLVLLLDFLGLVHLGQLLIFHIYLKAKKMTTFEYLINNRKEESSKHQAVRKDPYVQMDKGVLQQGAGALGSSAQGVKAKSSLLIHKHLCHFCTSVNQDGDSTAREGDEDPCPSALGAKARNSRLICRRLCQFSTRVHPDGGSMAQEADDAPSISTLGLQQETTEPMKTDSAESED
Text: probe loading in HEK293T, FLAG IP, TAMRA click, in-gel fluorescence on ZDHHC11 | ZDHHC11(M181A)/16-cPr

[2] = biological target: T2, ZDHHC3 (Homo sapiens, UniProt Q9NYG2, I182G)
T2 construct: N-terminal 3xFLAG tag; expressed in HEK293T, anti-FLAG immunoprecipitated
T2 sequence (Q9NYG2 1-299 I182G): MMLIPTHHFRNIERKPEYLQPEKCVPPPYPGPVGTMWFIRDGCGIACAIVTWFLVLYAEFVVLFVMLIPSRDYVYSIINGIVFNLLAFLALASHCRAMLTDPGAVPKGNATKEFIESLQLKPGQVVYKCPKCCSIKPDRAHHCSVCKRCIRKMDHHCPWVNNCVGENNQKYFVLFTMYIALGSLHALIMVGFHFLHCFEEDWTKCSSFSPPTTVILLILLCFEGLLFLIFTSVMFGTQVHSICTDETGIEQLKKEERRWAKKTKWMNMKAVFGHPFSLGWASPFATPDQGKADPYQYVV

[3] = biological target: T3, ZDHHC15 (Homo sapiens, UniProt Q96MV8, Y184G)
T3 construct: N-terminal 3xFLAG tag; expressed in HEK293T, anti-FLAG immunoprecipitated
T3 sequence (Q96MV8 1-337 Y184G): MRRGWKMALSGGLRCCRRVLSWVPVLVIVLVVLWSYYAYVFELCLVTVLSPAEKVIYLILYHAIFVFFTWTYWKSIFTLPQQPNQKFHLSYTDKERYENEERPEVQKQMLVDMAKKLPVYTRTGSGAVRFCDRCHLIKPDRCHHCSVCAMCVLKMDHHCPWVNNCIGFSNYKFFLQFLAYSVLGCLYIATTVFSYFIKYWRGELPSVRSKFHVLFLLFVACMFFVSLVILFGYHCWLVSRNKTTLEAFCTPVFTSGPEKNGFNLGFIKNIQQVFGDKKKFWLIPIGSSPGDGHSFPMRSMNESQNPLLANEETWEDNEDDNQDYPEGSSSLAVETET
Text: probe loading in HEK293T, FLAG IP, TAMRA click, in-gel fluorescence on ZDHHC15 | ZDHHC15(Y184G)/20-cPr

[4] = biological target: T4, ZDHHC7 (Homo sapiens, UniProt Q9NXF8, L57G)
T4 construct: N-terminal 3xFLAG tag; expressed in HEK293T, anti-FLAG immunoprecipitated
T4 sequence (Q9NXF8 1-308 L57G): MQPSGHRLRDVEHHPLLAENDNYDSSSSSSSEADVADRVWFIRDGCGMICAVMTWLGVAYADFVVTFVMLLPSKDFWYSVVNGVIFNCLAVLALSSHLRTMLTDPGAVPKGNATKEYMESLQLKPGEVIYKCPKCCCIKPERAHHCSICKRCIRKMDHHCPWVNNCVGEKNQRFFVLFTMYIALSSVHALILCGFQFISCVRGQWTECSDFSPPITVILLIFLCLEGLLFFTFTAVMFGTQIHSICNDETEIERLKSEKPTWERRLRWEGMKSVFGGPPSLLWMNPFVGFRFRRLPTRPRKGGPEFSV
Text: probe loading in HEK293T, FLAG IP, TAMRA click, in-gel fluorescence on ZDHHC7 | ZDHHC7(L57G)/20-Bz

C#CCN(CCCCCCCCCCCC(=O)O)C(=O)C1CC1 [6b, 12-(N-(Prop-2-yn-1-yl)cyclopropanecarboxamido)dodecanoic acid]
probe loading in HEK293T, FLAG IP, TAMRA click, in-gel fluorescence [1]: ZDHHC11(M181A)/16-cPr

C#CCN(CCCCCCCCCCCCCCCC(=O)O)C(=O)C1CC1 [6h, 16-(N-(Prop-2-yn-1-yl)cyclopropanecarboxamido)hexadecanoic acid]
probe loading in HEK293T, FLAG IP, TAMRA click, in-gel fluorescence [2]: four additional optimized mutant/probe pairs: ZDHHC3(I182G)/20-cPr | probe loading in HEK293T, FLAG IP, TAMRA click, in-gel fluorescence [3]: ZDHHC15(Y184G)/20-cPr

C#CCN(CCCCCCCCCCCCCCCC(=O)O)C(=O)c1ccccc1 [6i, 16-(N-(Prop-2-yn-1-yl)benzamido)hexadecanoic acid]
probe loading in HEK293T, FLAG IP, TAMRA click, in-gel fluorescence [4]: ZDHHC7(L57G)/20-Bz
